Measurements taken from patent publication US20100197738A1, “FLY CONTROL METHOD” (priority 2007, published 2010).

System: Adult L. serricata (blowflies)
Test: Test A: adult blowflies on blood agar containing test compound, scored by number of dead flies
Format: in vivo
Conditions: 4 flies in test
Experimental: Adult L. serricata (blowflies): Adult flies are placed on beds of blood agar (in individual test wells; 4 flies per well) in which test compound, (3-bromo-N-[4-chloro-2-methyl-6-[(methylamino)carbonyl]phenyl]-1-(3-chloro-2-pyridinyl)-1H-pyrazole-5-carboxamide), was dissolved/suspended prior to hardening of agar. Flies can take up test compound by both ingestion and contact. Assays are scored by number of dead flies at 2 hours, 4 hours, and 24 hours.

Row | SMILES | Number dead flies at 2 hours (Rate 1 ppm in blood agar) | Number dead flies at 4 hours (Rate 1 ppm in blood agar) | Number dead flies at 24 hours (Rate 1 ppm in blood agar) | Number dead flies at 2 hours (Rate 10 ppm in blood agar) | Number dead flies at 4 hours (Rate 10 ppm in blood agar) | Number dead flies at 24 hours (Rate 10 ppm in blood agar) | Number dead flies at 2 hours (Rate 25 ppm in blood agar) | Number dead flies at 4 hours (Rate 25 ppm in blood agar) | Number dead flies at 24 hours (Rate 25 ppm in blood agar) | Number dead flies at 2 hours (Rate 50 ppm in blood agar) | Number dead flies at 4 hours (Rate 50 ppm in blood agar) | Number dead flies at 24 hours (Rate 50 ppm in blood agar) | Number dead flies at 2 hours (Rate 100 ppm in blood agar) | Number dead flies at 4 hours (Rate 100 ppm in blood agar) | Number dead flies at 24 hours (Rate 100 ppm in blood agar)
1 | CCOP(=S)(OCC)Oc1nc(Cl)c(Cl)cc1Cl [Chloropyriphos, O,O-diethyl-O-3,5,6-trichloro-2-pyridyl-phosphorothioate] | 0 | 1 | 4 | 1 | 4 | 4 | 3 | 4 | 4 | 4 | 4 | 4 | 4 | 4 | 4
2 | CNC(=O)c1cc(Cl)cc(C)c1NC(=O)c1cc(Br)nn1-c1ncccc1Cl [Test Compound, 3-bromo-N-[4-chloro-2-methyl-6-[(methylamino)carbonyl]phenyl]-1-(3-chloro-2-pyridinyl)-1H-pyrazole-5-carboxamide] | 0 | 0 | 0 | 0 | 0 | 1 | 0 | 0 | 2 | 0 | 0 | 2 | 0 | 0 | 3
